Measurements: patent publication US20140294849A1, “COMPOSITIONS AND USES” (GLAXOSMITHKLINE BIOLOGICALS SA, priority 2011, published 2014)
No end group written: not given here.

Assays:
[1] = test system: BV2 microglia cells; test: In vitro phagocytosis of Aβ1-42 in BV2 cells, Western blot; type: cell-based, mouse; settings: Example 16; 5 μg/mL cytochalasin D
Description: For total Aβ detection, 10-30 μg of cell extracts were separated on a precast 10-20% SDS polyacrylamide Tris-Tricine gel (Bio-Rad, Canada). Separated proteins were then transferred onto polyvinylidene fluoride (PVDF) membranes (PerkinElmer, Canada). Membrane were incubated in DPBS (Gibco, USA) at 90° C. for 10 min. Membrane were then incubated for 1 hour in blocking solution, which consist in TBS-T (50 mM Tris-HCl pH 8.0; 150 mM NaCl; 0.05% Tween 20) supplemented with 1% BSA (Sigma, Canada) and 5% non-fat dry milk, and probed for 16 hours at 4° C. with a mouse anti-amyloid beta protein monoclonal antibody clone 6E10 (Covance, USA) diluted to 1:1000 in TBS-T supplemented with 5% BSA and 0.02% sodium azide. Membranes were washed once for 15 min and three times for 5 min in TBS-T at room temperature. […] Films were digitalized using a HP Scanjet 4370 (HP) and signal intensity was measured using ImageJ (version 1.44p, NIH).
Aβ specific antibodies stimulate the uptake of soluble Aβ1-42 toxic peptides in an actin polymerization-dependent mechanism. […] Cells were incubated for the indicated period of time, resuspended by trypsinization, collected, solubilised in lysis buffer and further analyzed by immunoblotting. […]

[2] = test system: working memory; test: T-water maze in TASTPM mice; type: in vivo; settings: Example 25; 12 weekly i.m. injections; vs PBS
Description: Mice were tested during the “light on” phase of the day. Behavioral experimenter was blinded to the genetic and treatment status of animals. To assess hippocampal-dependent spatial learning and memory, mice were trained in the T-water maze task. In this paradigm, we evaluate the mouse's ability to remember the spatial location of submerged platform. The T-maze apparatus (length of stem, 64 cm; length of arms, 30 cm; width, 12 cm; height of walls, 16 cm) was made of clear fiberglass and filled with water (23±1° C.) at a height of 12 cm. A platform (11×11 cm) was placed at the end of the target arm and was submerged 1 cm below the surface. The acquisition phase allows to evaluate animals for left-right spatial learning. During the first two trials, platforms were placed on each arms of the maze to test the spontaneous turning preference of the mouse. After these two trials, the least chosen arm was reinforced by the escape platform. […] The number of trials to reach the criterion (five of five correct choices made on consecutive trials) was measured as well as the latency to find the escape platform.
To determine whether a TLR2 agonist will improve the cognitive impairment in TASTPM mice, the Pam3CysLip adjuvant fused to the Aβ1-6 peptide was injected 12 times at weekly basis using the intramuscular route and the memory was assessed using the T-water maze test. […]

[3] = test system: TASTPM mice; test: Survival rate of TASTPM mouse model; type: in vivo; settings: Example 26; weekly injections; followed for 112 days
Excerpt: The usage of the TLR2 agonist, i.e. Pam3CysLip Aβ1-6 peptide, improves the survival rate of TASTPM mouse model. 23 out of 25 mice survived after weekly injections of Pam3CysLip Aβ1-6 peptide compared to PBS injected animals in which only 13 out 25 TASTPM mice survived (followed for 112 days).

[4] = test system: Aβ42; test: Anti Aβ42 specific immunogenicity in TASTPM mice; type: in vivo; settings: Example 24; 12 injections of 10 ug, intramuscular
Description: Whole blood is collected from mice and centrifuged on a vacutainer blood collection tube containing gel for serum separation. Serum samples are stored at −80° C. Streptavidin-coated plates (Greiner Bio-One, Germany) are first coated with beta-amyloid (1-42)-Lys(Biotin)-NH2 peptide (Anaspec, Inc.) at 0.5 μg/mL, using 50 mM sodium carbonate buffer, overnight at 4° C. Plates are then washed using a 4 times using PBS/0.05% Tween 20. Super Block (ScyTek laboratories) is added to the plates and incubated at 37° C. for at least one hour. Serum samples and standard (anti Aβ42 antibody (6E10 antibody, Covance, Inc.) are serially diluted in the plates and incubated at 37° C. for 2 hours. After a wash step, diluted peroxidase AffiniPure goat anti-mouse IgG, Fcγ fragment specific (Jackson ImmunoResearch Laboratories Inc.) is added for 1 hour at 37° C. A last wash is performed before adding TMB substrate reagent (BD OptEIA™, BD Biosciences) for 30 min at RT. Immediately, plates are stopped using 2N sulfuric acid, and then read at 450 nm using SpectraMax microplate reader (Molecular Devices, Inc.).
High and specific anti Aβ42 specific immunogenicity is promoted by a TLR2 containing adjuvant fused to the first six amino acid of Aβ in the amyloid deposition mouse model (TASTPM) following 12 injections of 10 ug of the Pam3Cys—SQ EPAAPAAEAT PAAEAP DAEFRH (SEQ ID NO:9) using the intramuscular route.

[5] = test system: AD-like neuropathologies; settings: Schenk D. et al, 1999; cited from earlier work

With C=C1[C@@H](C)[C@H]2[C@H](Cc3ccccc3)NC(=O)[C@]23[C@H](OC(C)=O)/C=C/[C@@](C)(O)C(=O)[C@@H](C)C/C=C/[C@H]3[C@@H]1O [cytochalasin D] the “effect on 2E7-increased cellular uptake of Aβ1-42” value [1] was “inhibited”.
For “Pam3Cys—SQ EPAAPAAEAT PAAEAPDAEFRH (Pam3Cys-SQEPAAPAAEATPAAEAPDAEFRH) [Pam3CysLip Aβ1-6]”, the “right-left discrimination tests, T-water maze” value [2] was “trend of improvement”, the mice survived [3] was 23 out of 25 and the Aβ42 specific immunogenicity [4] was “High Aβ42 specific Immunogenicity”.
In the case of “synthetic human Aβ1-42: synthetic human Aβ1-42 used to immunize PDAPP mice”, the AD-like neuropathologies [5] is given as “reduce the extent and progression of AD-like neuropathologies”.
